Results taken from patent US9789111B2, “Casein kinase 1δ (CK 1δ) inhibitors” (Electrophoretics Limited, priority 2010, dated 2017).

Tests used:
[1] = system: total Tau in SH-SY5Y-TMHT cells; assay: Western Blot of total Tau; type: cell-based, human; conditions: 10 μM
Method: SH-SY5Y-TMHT cells are kept in culture medium (DMEM medium, 10% FCS, 1% NEAA, 1% L-Glutamine, 100 μg/ml Gentamycin, 300 μg/ml Geneticin G-418) for 2 days until 80-90% confluency. Cells are then differentiated in culture medium supplemented with 10 μM retinoic acid (RA) for 7 days changing medium every 2 to 3 days. Differentiated cells are seeded onto 6-well plates and 96-well plates at a cell density of 1.25×10^6 and 8×10^5 cells per well, respectively. On day 8 post-differentiation, the test compounds, reference compounds and vehicle control were added to the culture medium. After 6 h of compound exposure one plate of cells is subjected to a MTT assay to evaluate the effect of test and reference items on cell viability. Remaining wells are washed once with cold PBS and harvested in 300 μl RIPA-Buffer [50 mM Tris pH 7.4, 1% Nonident P40, 0.25% Na-deoxy-cholate, 150 mM NaCl, 1 mM EDTA, 1 μM NaF, 1 μM Na-ortho-vanadate, 80 mM Glycerophosphate, supplemented with freshly added protease (Calbiochem) and phosphatase (Sigma) inhibitor cocktail]. The cell suspension is transferred into a 1.5 ml tube and additionally lysed by sonication on ice. An aliquot of 20 μl is taken for the determination of the protein concentration (BCA assay). Subsequently, the lysates are snap frozen and stored at −80° C. until shipment.
Lysates of treated cells were prepared in Laemmli buffer and 10 μg loaded into each lane of a 10% Nu-PAGE gel (Invitrogen, UK). Samples were run until the coomassie blue dye fromt was within 1 cm of the bottom of the gel. The separated proteins were transferred onto nitrocellulose and blots developed using antibodies specific for total tau (Polyclonal Rabbit Anti-Human Tau, Dako, UK (cat # A0024)) and phopho-Threonine 231 (Tau (Phospho-Thr231) Antibody, Signalway Antibody, USA (cat # 11110)) respectively. In each case the bound antibody was detected using ECL Rabbit IgG, HRP-Linked (from donkey) (GE Healthcare, UK (cat # NA934))

CK1g3 = CK1g3 (Homo sapiens, UniProt Q9Y6M4); assay: kinase inhibition assay panel; type: biochemical
CK1g1 = CK1g1 (Homo sapiens, UniProt Q9HCP0); assay: kinase inhibition assay panel; type: biochemical
CK1δ = biological target: T1, CK1δ (Homo sapiens, UniProt P48730); assay: CK1δ inhibition assay (33P-ATP, CK1tide substrate); type: biochemical; conditions: range of kinase inhibition assays
T1 construct: Recombinant human full-length construct; GST; host or cells: insect cells
T1 sequence (P48730 1-409 isoform P48730-2): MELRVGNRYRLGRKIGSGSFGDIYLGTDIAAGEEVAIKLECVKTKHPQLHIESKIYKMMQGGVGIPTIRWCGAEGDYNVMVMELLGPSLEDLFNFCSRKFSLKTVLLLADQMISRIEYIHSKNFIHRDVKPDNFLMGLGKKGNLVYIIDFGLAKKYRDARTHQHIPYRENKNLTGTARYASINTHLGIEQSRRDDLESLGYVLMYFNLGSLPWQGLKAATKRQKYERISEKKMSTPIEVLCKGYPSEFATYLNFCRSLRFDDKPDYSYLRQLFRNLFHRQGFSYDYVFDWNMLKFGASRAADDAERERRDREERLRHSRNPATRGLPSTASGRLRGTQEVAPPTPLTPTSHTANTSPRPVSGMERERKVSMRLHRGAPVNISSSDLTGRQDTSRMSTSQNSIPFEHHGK
Method: The compounds of the invention may be tested for inhibition of casein kinase 1 delta (CK1δ) in accordance with the assay protocols described in US 2010/0152157, EP 1,636,375 or Hanger et al (2007) J. Biol. Chem. 282, 23645-23654. In particular, the assay was conducted in accordance with the following protocol:
Base Reaction buffer; 20 mM Hepes (pH 7.5), 10 mM MgCl2, 1 mM EGTA, 0.02% Brij35, 0.02 mg/ml BSA, 0.1 mM Na3VO4, 2 mM DTT, 1% DMSO
It should be noted that required cofactors are added individually to each kinase reaction.
• 1. Prepare indicated substrate in freshly prepared Base Reaction Buffer as described above • 2. Deliver any required cofactors to the substrate solution • 3. Deliver indicated kinase into the substrate solution and gently mix • 4. Deliver compounds in DMSO into the kinase reaction mixture • 5. Deliver ^33P-ATP (specific activity 0.01 μCi/μl final) into the reaction mixture to initiate the reaction • 6. Incubate kinase reaction for 120 min. at room temperature • 7. Reactions are spotted onto P81 ion exchange paper (Whatman #3698-915) • 8. Wash filters extensively in 0.75% Phosphoric acid Kinase Information: • CK1δ—Genbank Accession # NP_620693 • Recombinant human full-length construct. GST-tagged, expressed in insect cells. • Final concentration in assay=4 nM • Substrate: CK1tide • Substrate sequence: [KRRRAL[pS]VASLPGL] • Final substrate concentration in assay=20 μM • It should be noted that no additional cofactors are added to the reaction mixture.

Sequence of CK1g1 (Q9HCP0 whole entry): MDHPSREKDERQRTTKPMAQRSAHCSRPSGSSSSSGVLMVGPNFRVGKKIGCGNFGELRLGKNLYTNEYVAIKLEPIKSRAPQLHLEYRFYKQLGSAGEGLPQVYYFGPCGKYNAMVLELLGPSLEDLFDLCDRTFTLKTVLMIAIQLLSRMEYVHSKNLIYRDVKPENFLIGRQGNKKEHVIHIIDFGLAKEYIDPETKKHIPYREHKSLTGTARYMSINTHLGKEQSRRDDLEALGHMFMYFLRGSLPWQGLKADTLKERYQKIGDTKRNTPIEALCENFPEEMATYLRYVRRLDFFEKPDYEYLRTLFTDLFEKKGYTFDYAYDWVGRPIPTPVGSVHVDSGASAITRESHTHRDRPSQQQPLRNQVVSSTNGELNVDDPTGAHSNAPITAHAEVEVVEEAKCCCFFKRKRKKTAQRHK
Sequence of CK1g3 (Q9Y6M4 whole entry): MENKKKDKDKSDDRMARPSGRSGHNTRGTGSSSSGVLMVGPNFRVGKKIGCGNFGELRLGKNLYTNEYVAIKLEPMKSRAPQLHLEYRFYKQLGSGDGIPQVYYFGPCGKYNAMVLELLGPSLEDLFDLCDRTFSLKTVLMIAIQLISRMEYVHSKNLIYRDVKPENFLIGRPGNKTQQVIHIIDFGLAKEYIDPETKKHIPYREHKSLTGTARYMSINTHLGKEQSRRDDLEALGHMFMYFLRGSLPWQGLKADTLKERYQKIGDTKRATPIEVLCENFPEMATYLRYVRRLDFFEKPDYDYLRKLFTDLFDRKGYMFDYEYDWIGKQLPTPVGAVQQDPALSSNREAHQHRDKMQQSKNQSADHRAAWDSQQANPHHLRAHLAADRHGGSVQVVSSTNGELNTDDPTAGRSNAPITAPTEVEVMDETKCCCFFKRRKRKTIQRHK

| inhibition of CK1g3 (CK1g3) | inhibition of CK1g1 (CK1g1) | SMILES | detectable levels of total Tau [1] | selectivity for CK1δ when compared with other kinases (CK1δ) |
| --- | --- | --- | --- | --- |
| lower than 40% | lower than 40% | NC(=O)c1c(N)c(C(=O)c2ccc(F)cc2)n2ccccc12 [Compound 987, 2-amino-3-[(4-fluorophenyl)carbonyl]indolizine-1-carboxamide] | no significant difference | significant and selective inhibition for CK1δ |
| lower than 40% | lower than 40% | Nc1ncc(-c2nc3ccccc3o2)c(-c2ccncc2)n1 [Compound 324, 5-(1,3-benzoxazol-2-yl)-4-(pyridin-4-yl)pyrimidin-2-amine] | no significant difference | significant and selective inhibition for CK1δ |
